These results are taken from patent US7589099B2, “7-t-butoxyiminomethylcamptothecin conjugated in position 20 with integrin antagonists” (priority 2004, dated 2009).

What is called IC50 is the concentration at which inhibition is half-maximal.

Read-outs that look alike come from different tables or passages of the source. Where only a bound is given, the exact number is not on record here.

The target of experiment [1] is T1, purified αvβ5 receptor (Homo sapiens, UniProt P06756+P18084).
T1 construct: purchased Chemicon CC1020
Put plainly: Binding to integrin αvβ5 receptors ([125I]echistatin competition). As to the method: (§1) An aliquot of 100 μl was added to 96-well plates and incubated overnight at +4° C. Plates were washed once with buffer (50 mM Tris, pH 7.4, 100 mM NaCl, 2 mM CaCl2, 1 mM MgCl2, 1 mM MnCl2, 1% bovine serum albumin) and then incubated for another 2 hours at room temperature. Plates were washed twice with the same buffer and incubated for 3 hours at room temperature with the radioactive ligand [^125I]echistatin (Amersham Pharmacia Biotech) 0.15 nM in the presence of competition ligands. At the end of incubation, the wells were washed and the radioactivity determined using a gamma counter (Packard). Non-specific ligand binding was determined in the presence of excess cold echistatin (1 μM).
(§2) The IC50 parameter was elaborated using “ALLFIT” software.

Experiment [2] concerns the target T2, purified αvβ3 receptor (Homo sapiens, UniProt P05106+P06756).
T2 construct: purchased Chemicon CC1020
Kind of experiment: Binding to integrin αvβ3 receptors ([125I]echistatin competition). As to the method: as §1, with “7,4,” for “7.4,”, “0.05” for “0.15”, “Non-specific binding of the” for “Non-specific”, “ligand” for “ligand binding”
as §2

Experiment [3] deals with PC3 human prostate carcinoma. Kind of experiment: cells. Type of experiment: cell-based. The method, then: (§3) To evaluate the effect of the compound on survival cells, the sulphorodamine B test was used. To test the effects of the compounds on cell growth, PC3 human prostate carcinoma, A498 human renal carcinoma, A2780 human ovarian carcinoma cells and NCI-H460 non-small cell lung carcinoma were used. A2780, NCI-H460 and PC3 tumor cells were grown RPMI 1640 containing 10% fetal bovine serum (GIBCO), whereas A498 tumor cells were grown in EMEM containing 10% fetal bovine serum (GIBCO).
(§4) Tumor cells were seeded in 96-well tissue culture plates (Corning) at approximately 10% confluence and were allowed to attach and recover for at least 24 h. […] The plates were incubated for 72 h at 37° C. or 2 h followed by 72 h of recovery. At the end of the treatment, the plates were washed by removal of the surnatant and addition of PBS 3 times. 200 μl PBS and 50 μl of cold 80% TCA were added. The plates were incubated on ice for at least 1 h. TCA was removed, the plates were washed 3 times for immersion in distilled-water and dried on paper and at 40° C. for 5 min.
(§5) Then 200 μl of 0.4% sulphorodamine B in 1% acetic acid were added. The plates were incubated at room temperature for other 30 min. Sulphorodamine B was removed, the plates were washed for immersion in 1% acetic acid for 3 times, then they were dried on paper and at 40° C. for 5 min.
(§6) Then 200 μl Tris 10 mM were added, the plates were kept under stirring for 20 min. The survival cell was determined as optical density by a Multiskan spectrofluorimeter at 540 nm. The amount of cells killed was calculated as the percentage decrease in sulphorodamine B binding compared with control cultures.
(§7) The IC50 values were calculated with the “ALLFIT” program.

Experiment [4] deals with A2780 human ovarian carcinoma cells. Put plainly: cells. Type of experiment: cell-based. The method, then:
as §3, §4, §5, §6, §7

The test system of experiment [5] is A498 human renal carcinoma. Put plainly: cells. The class given is cell-based. The method, then:
as §3, §4, §5, §6, §7

Experiment [6] relates to NCI-H460 non-small cell lung carcinoma. Kind of experiment: Cytotoxicity, sulphorodamine B test, NCI-H460. The class given is cell-based, human. To be noted: 2 h of treatment (followed by 72 h of recovery), read-out: NCI-H460 IC50 ± SD. The method, then:
as §3
Tumor cells were seeded in 96-well tissue culture plates (Corning) at approximately 10% confluence and were allowed to attach and recover for at least 24 h. […] The plates were incubated for 72 h at 37° C. or 2 h followed by 72 h of recovery. At the end of the treatment, the plates were washed by removal of the surnatant and addition of PBS 3 times. 200 μl PBS and 50 μl of cold 80% TCA were added. The plates were incubated on ice for at least 1 h. […]
as §6, §7

With `CN1C(=O)[C@@H](Cc2ccccc2)NC(=O)[C@H](CC(=O)O)NC(=O)CNC(=O)[C@H](CCCNC(=N)N)NC(=O)[C@@H]1Cc1ccc(CN)cc1` [ST2700], the IC50 in experiment [1] (RGD peptides, [125I]echistatin 0.15 nM, read-out: αvβ5 IC50 ± SD) is 0.0009 ± 5e-06 µM.
For `CC[C@@]1(OC(=O)[C@@H](NC(=O)CCC(=O)NCc2ccc(C[C@@H]3NC(=O)C(Cc4ccccc4)NC(=O)[C@H](CC(=O)O)NC(=O)CNC(=O)[C@H](CCCNC(=N)N)NC3=O)cc2)C(C)C)C(=O)OCc2c1cc1n(c2=O)Cc2c-1nc1ccccc1c2/C=N/OC(C)(C)C` (stereo partly drawn) [ST2670], the half-maximal inhibitory concentration (IC50) in experiment [1] was found to be 0.074 ± 0.0008 µM; in experiment [2], 0.0477 ± 0.0009 µM; in experiment [3] (72 h), 9.6 ± 0.6 µM; in experiment [4] (72 h) it was 0.4 µM; in experiment [5] (72 h), 1.6 ± 0.3 µM.
Turning to `CC[C@@]1(OC(=O)[C@@H](NC(=O)[C@@H](N)CC(=O)NCc2ccc(C[C@@H]3NC(=O)C(Cc4ccccc4)NC(=O)[C@H](CC(=O)O)NC(=O)CNC(=O)[C@H](CCCNC(=N)N)NC3=O)cc2)C(C)C)C(=O)OCc2c1cc1n(c2=O)Cc2c-1nc1ccccc1c2/C=N/OC(C)(C)C` (stereo partly drawn) [ST2671], the figures for the IC50 in experiment [1], in experiment [2] and in experiment [3] (72 h) were 0.0542 ± 0.0005 µM, 0.0228 ± 0.0012 µM and 0.35 ± 0.08 µM, respectively. Also, in experiment [3] (72 h of treatment), the “PC3 IC50 ± SD” value was “potent cytotoxicity”.
As to `CC[C@@]1(OC(=O)[C@@H](NC(=O)[C@H](CC(=O)O)NC(=O)OC(C)(C)C)C(C)C)C(=O)OCc2c1cc1n(c2=O)Cc2c-1nc1ccccc1c2/C=N/OC(C)(C)C` [ST2676, 20-O-Val-Asp-gimatecan], the IC50 in experiment [3] (Homo sapiens, 72 h of treatment, read-out: PC3 IC50 ± SD) was 0.038 ± 0.004 µM; in experiment [4] (Homo sapiens, A2780, 72 h of treatment, read-out: A2780 IC50 ± SD), less than 0.00097 µM; in experiment [5] (Homo sapiens, A498, 72 h of treatment, read-out: A498 IC50 ± SD), 0.047 ± 0.005 µM; in experiment [6] (Homo sapiens, NCI-H460) it was 0.17 ± 0.02 µM.
With 20-O-Val-gimatecan [ST2678], in experiment [6], the IC50 amounted to 0.025 ± 0.002 µM.
